# Reference: patent US20070123571A1, “Use of a compound in the treatment of sleep disorders” (priority 2003, published 2007)
# Structures can show the parent of a compound that is named as a salt.
# Tests used:
# [1] = Loughborough sleep log, morning log: awoke refreshed / quality of sleep responses; format: in vivo, human
# Description: Typically, the percentage of individuals who, after taking a dose of triprolidine before sleeptime, wake refreshed after sleeping is in the range 1-100%, more typically, 5-70%, most typically 10-35%. An especially typical range as aforesaid is 15-30% or even more especially 20-30%. Typically, by the terms “waking refreshed” or “wake refreshed” is meant that an individual felt at least refreshed on waking, preferably, the terms are defined as the individual felt very refreshed or refreshed in accordance with the Loughborough sleep log.
# The degree of refreshedness and quality of sleep may be determined by the “morning” log of the Loughborough sleep log with the highest degree of refreshedness or quality of sleep being represented as 1 and the lowest being represented as 5. Accordingly, the percentage increase in refreshedness or quality of sleep is measured in this context by the decrease in the mean refreshedness or quality of sleep.
# Preferably, by the use of the present invention, the response of awakening very refreshed or refreshed, as determined, for instance, by the morning log of the Loughborough sleep log, is improved by at least 20%, more preferably, by at least, 30%, most preferably by at least 40%, as compared with an equivalent dose of placebo.
# Preferably, by the use of the present invention, the response of sleeping extremely well or very well, as determined, for instance, in accordance with the morning log of the Loughborough sleep log, is improved by at least 20%, more preferably, at least, 35%, most preferably at least 50%, as compared with an equivalent dose of placebo.
# Preferably, by the use of the present invention, the response of sleeping extremely well or very well, as determined, for instance, in accordance with the morning log of the Loughborough sleep log, is found for at least 20% of individuals, more preferably, at least 25%, most preferably, at least 30%. For example over 35% of individuals had such a response.
# [2] = Karolinska 9-point scale: alertness / sleepiness on waking; format: in vivo, human
# Description: By the term felt alert is meant that an individual felt at least alert on waking. Preferably, the term is defined as the individual felt alert, very alert or extremely alert in accordance with the Karolinska 9-point scale. By the term felt sleepy is meant that an individual felt sleepy on waking. Preferably, the term is defined as the individual felt sleepy or very sleepy in accordance with points 8 or 9 of the Karolinska 9-point scale. Preferably, by the use of the present invention, the response of feeling extremely alert, very alert or alert as determined, for instance, in accordance with the Karolinska 9-point scale, is improved by at least 2%, more preferably, by at least, 5%, most preferably by at least 10%, as compared with an equivalent dose of placebo. Preferably, by the use of the present invention, the response of feeling sleepy and needing to make some effort to stay awake or very sleepy, as determined, for instance, in accordance with points 8 and 9 of the Karolinska 9 point scale, is improved (i.e. decreased) by at least 2%, more preferably, by at least, 4%, most preferably, by at least 10%, as compared with an equivalent dose of placebo.
# [3] = single doses 10 mg or 20 mg sustained release at bedtime, volunteers, compared with placebo; cited from earlier work
compound,measurement,setting,value
Cc1ccc(/C(=C\CN2CCCC2)c2ccccn2)cc1 [TRP•HCl•H2O],Loughborough Sleep Log: Awoke Very Refreshed or Refreshed Responses,"[1]; 2.5 mg dose, Monday",23%
same,Loughborough Sleep Log: Last Night I Slept Extremely Well or Very Well Responses,"[1]; 2.5 mg dose, Monday",41.4%
same,Loughborough Sleep Log: Awoke Very Refreshed or Refreshed Responses,"[1]; 2.5 mg dose, Tuesday",23%
same,Loughborough Sleep Log: Last Night I Slept Extremely Well or Very Well Responses,"[1]; 2.5 mg dose, Tuesday",41.8%
same,Loughborough Sleep Log: Awoke Very Refreshed or Refreshed Responses,"[1]; 2.5 mg dose, Wednesday",25.8%
same,Loughborough Sleep Log: Last Night I Slept Extremely Well or Very Well Responses,"[1]; 2.5 mg dose, Wednesday",37.9%
same,Loughborough Sleep Log: Awoke Very Refreshed or Refreshed Responses,"[1]; 5 mg dose, Monday",11.5%
same,Loughborough Sleep Log: Last Night I Slept Extremely Well or Very Well Responses,"[1]; 5 mg dose, Monday",50.9%
same,Loughborough Sleep Log: Awoke Very Refreshed or Refreshed Responses,"[1]; 5 mg dose, Tuesday",8.2%
same,Loughborough Sleep Log: Last Night I Slept Extremely Well or Very Well Responses,"[1]; 5 mg dose, Tuesday",28.8%
same,Loughborough Sleep Log: Awoke Very Refreshed or Refreshed Responses,"[1]; 5 mg dose, Wednesday",14.8%
same,Loughborough Sleep Log: Last Night I Slept Extremely Well or Very Well Responses,"[1]; 5 mg dose, Wednesday",39.3%
same,"(b) I feel (i) sleepy, [and need to make] some effort or (ii) very sleepy, a great effort to keep awake","[2]; 2.5 mg dose, Monday",11.5%
same,"Karolinska 9-point scale (a) I feel extremely alert, very alert or alert","[2]; 2.5 mg dose, Monday",21.3%
same,"(b) I feel (i) sleepy, [and need to make] some effort or (ii) very sleepy, a great effort to keep awake","[2]; 2.5 mg dose, Tuesday",13.1%
same,"Karolinska 9-point scale (a) I feel extremely alert, very alert or alert","[2]; 2.5 mg dose, Tuesday",21.3%
same,"(b) I feel (i) sleepy, [and need to make] some effort or (ii) very sleepy, a great effort to keep awake","[2]; 2.5 mg dose, Wednesday",6.5%
same,"Karolinska 9-point scale (a) I feel extremely alert, very alert or alert","[2]; 2.5 mg dose, Wednesday",21.0%
same,"(b) I feel (i) sleepy, [and need to make] some effort or (ii) very sleepy, a great effort to keep awake","[2]; 5 mg dose, Monday",12.5%
same,"Karolinska 9-point scale (a) I feel extremely alert, very alert or alert","[2]; 5 mg dose, Monday",6.3%
same,"(b) I feel (i) sleepy, [and need to make] some effort or (ii) very sleepy, a great effort to keep awake","[2]; 5 mg dose, Tuesday",17.5%
same,"Karolinska 9-point scale (a) I feel extremely alert, very alert or alert","[2]; 5 mg dose, Tuesday",9.5%
same,"(b) I feel (i) sleepy, [and need to make] some effort or (ii) very sleepy, a great effort to keep awake","[2]; 5 mg dose, Wednesday",12.7%
same,"Karolinska 9-point scale (a) I feel extremely alert, very alert or alert","[2]; 5 mg dose, Wednesday",17.5%
same,sleep onset latency (time required to fall asleep),[3],did not significantly alter
same,total sleep time,[3],no effect
same,wakefulness during sleep,[3],no effect
